One molecule from patent US5169984A, “Synthesis and characterization of N-bromoacetyl-3,3'5-triiodo-L-thyronine using high speed countercurrent chromatography” (The United States of America as represented by the …, priority 1990, dated 1992) can be followed below.

Each structure is given as a SMILES string.

For the data set the following is noted: crude, prior to HSCCC; ethyl acetate, well-sealed container, -20° C., over four months. The method, then: Chromatograms were monitored by radioactivity. In FIG. 2A the sample was freshly prepared while in FIG. 2B the sample was stored for 4.2 months in ethyl acetate at -20° C. […] Other conditions were the same as in FIGS. 1A and 1B.

With `O=C(CBr)N[C@@H](Cc1cc(I)c(Oc2ccc(O)c(I)c2)c(I)c1)C(=O)O` [BrAc[^125 I]T3, ^125 I-labeled N-bromoacetyl-3,3',5-triiodo-L-thyronine], the decomposition on storage entry is given as “partial decomposition”.
